Source: US9840498B2, “Substituted quinazolin-4-one derivatives” (NOVARTIS AG, priority 2013, dated 2017)

What was measured:
[1] = target: PI3K delta (Homo sapiens (Human), UniProt O00329); test: Biochemical assay for PI3Kdelta (Adapta TR-FRET format); conditions: enzymatic assay
Excerpt: (§1) For the enzymatic assays, the preparation of PI3K gene constructs, protein expression and purification for HTS are described in WO2012/004299. […] The TR-FRET Adapta™ Universal Kinase Assay Kit was purchased from Invitrogen Corporation (Carlsbad/CA, USA) (Cat. No. PV5099). The kit contains the following reagents: Adapta Eu-anti-ADP Antibody (Europium labeled anti-ADP antibody in HEPES buffered saline, Cat. No. PV5097), Alexa Fluor® 647-labeled ADP tracer (Alexa Fluor® 647-labeled ADP tracer in HEPES buffered saline, Cat. No. PV5098), proprietary TR-FRET dilution buffer pH 7.5 (Cat. No. PV3574). PIK3CD substrate Phosphatidylinositol was obtained from Invitrogen (vesicules consisting of 2 mM PI in 50 mM HEPES pH7.5; Cat. No. PV5371). PIK3CG substrate Phosphatidylinositol-4,5-bisphosphate (PIP(4,5)2 was obtained from Invitrogen (PIP2:PS large unilamellar vesicules consisting of 1 mM PI P2: 19 mM PS in 50 mM HEPES pH7.5, 3 mM MgCl2, 1 mM EGTA; Cat. No. PV5100). Time-Resolved Fluorescence Resonance Energy Transfer (TR-FRET) is a technology based on energy transfer between two adjacent dyes, from an excited electron in one dye (the donor) to an electron of an adjacent dye (the acceptor) through resonance, then released as a photon. This energy transfer is detected by an increase in the fluorescence emission of the acceptor, and a decrease in the fluorescence emission of the donor. TR-FRET assays for protein kinases use a long-lifetime lanthanide Terbium or Europium chelates as the donor species which overcome interference from compound autofluorescence or light scatter from precipitated compounds, by introducing a delay after excitation by a flashlamp excitation source. Results are often expressed as a ratio of the intensities of the acceptor and donor fluorophores. The ratiometric nature of such a value corrects for differences in assay volumes between wells, as well as corrects for quenching effects due to colored compounds. The Adapta™ assay can be divided into two phases: a kinase reaction phase and an ADP detection phase. In the kinase reaction phase, all kinase reaction components are added to the well and the reaction is allowed to incubate for a set period of time specific for each kinase. After the reaction, a detection solution of Eu-labeled anti-ADP antibody, Alexa Fluor® 647-labeled ADP tracer, and EDTA (to stop the kinase reaction) are added to the assay well. ADP formed by the kinase reaction will displace the Alexa Fluor® 647-labeled ADP tracer from the antibody, resulting in a decrease in TR-FRET signal. In the presence of an inhibitor, the amount of ADP formed by the kinase reaction is reduced, and the resulting intact antibody-tracer interaction maintains a high TR-FRET signal. In the Adapta™ assay, the donor (Europium-anti-ADP antibody) is excited at 340 nm and will transfer its energy to the acceptor (Alexa Fluor® 647-labeled ADP tracer). The emission from the Alexa Fluor® 647 can be monitored with a filter centered at 665 nm because it is located between the emission peaks of the donor, which is measured at 615/620 nm. 50 nL of compound dilutions were dispensed onto white 384-well small volume polystyrene plate as described in section 2.2. Then 5 μL of PI3Kgamma and PI3Kdelta and lipid substrate (PI or PIP2:PS) followed by 5 μL of ATP (final assay volume 10 μL) are incubated at RT. […] Reactions were stopped with 5 μL of a mixture of EDTA containing the Eu-labeled anti-ADP antibody and the Alexa Fluor® 647-labeled ADP tracer in TR-FRET dilution buffer (proprietary to IVG). Plates are read 15 to 60 mins later in a Synergy2 reader using an integration time of 0.4 seconds and a delay of 0.05 seconds. […] The control for the 0% inhibition was given by the solvent vehicle of the compounds (90% DMSO in H2O). Data are analyzed using Excel fit software or Graphpad Prism. EC50 values were derived by fitting a sigmoidal dose-response curve to a plot of assay readout over inhibitor concentration. […]

[2] = target: PI3K gamma (Homo sapiens (Human), UniProt P48736); test: Biochemical assay for PI3Kgamma (Adapta TR-FRET format); conditions: enzymatic assay
PI3K gamma, sequence (P48736 whole entry): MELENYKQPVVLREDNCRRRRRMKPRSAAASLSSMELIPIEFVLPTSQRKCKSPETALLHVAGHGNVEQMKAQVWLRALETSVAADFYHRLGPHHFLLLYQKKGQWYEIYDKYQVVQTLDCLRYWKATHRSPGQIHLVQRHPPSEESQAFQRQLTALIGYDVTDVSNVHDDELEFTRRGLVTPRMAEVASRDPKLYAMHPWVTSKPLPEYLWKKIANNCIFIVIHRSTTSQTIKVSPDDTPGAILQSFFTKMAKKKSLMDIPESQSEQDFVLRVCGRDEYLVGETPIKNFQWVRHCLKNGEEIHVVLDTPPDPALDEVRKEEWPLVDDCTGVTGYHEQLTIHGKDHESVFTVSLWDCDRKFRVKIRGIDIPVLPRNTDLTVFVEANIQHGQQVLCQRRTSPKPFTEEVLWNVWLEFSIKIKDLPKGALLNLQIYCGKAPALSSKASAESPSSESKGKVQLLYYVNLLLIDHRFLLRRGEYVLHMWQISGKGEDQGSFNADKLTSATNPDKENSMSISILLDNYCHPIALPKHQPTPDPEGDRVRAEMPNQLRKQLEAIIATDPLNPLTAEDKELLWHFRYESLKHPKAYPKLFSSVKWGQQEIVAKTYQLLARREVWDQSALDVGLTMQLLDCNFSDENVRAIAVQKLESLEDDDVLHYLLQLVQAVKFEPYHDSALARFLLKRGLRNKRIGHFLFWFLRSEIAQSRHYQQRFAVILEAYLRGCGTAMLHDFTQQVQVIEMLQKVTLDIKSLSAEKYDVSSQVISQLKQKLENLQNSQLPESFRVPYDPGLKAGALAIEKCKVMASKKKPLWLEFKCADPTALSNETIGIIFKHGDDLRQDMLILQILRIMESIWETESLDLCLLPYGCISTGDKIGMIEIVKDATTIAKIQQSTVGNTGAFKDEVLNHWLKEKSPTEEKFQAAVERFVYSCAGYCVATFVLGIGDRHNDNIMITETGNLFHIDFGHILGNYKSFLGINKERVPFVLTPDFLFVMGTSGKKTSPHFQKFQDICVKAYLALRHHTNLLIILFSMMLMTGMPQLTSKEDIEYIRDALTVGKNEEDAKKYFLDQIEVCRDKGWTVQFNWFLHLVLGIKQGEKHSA
Excerpt: as §1

PI3K delta, sequence (O00329 2-1044): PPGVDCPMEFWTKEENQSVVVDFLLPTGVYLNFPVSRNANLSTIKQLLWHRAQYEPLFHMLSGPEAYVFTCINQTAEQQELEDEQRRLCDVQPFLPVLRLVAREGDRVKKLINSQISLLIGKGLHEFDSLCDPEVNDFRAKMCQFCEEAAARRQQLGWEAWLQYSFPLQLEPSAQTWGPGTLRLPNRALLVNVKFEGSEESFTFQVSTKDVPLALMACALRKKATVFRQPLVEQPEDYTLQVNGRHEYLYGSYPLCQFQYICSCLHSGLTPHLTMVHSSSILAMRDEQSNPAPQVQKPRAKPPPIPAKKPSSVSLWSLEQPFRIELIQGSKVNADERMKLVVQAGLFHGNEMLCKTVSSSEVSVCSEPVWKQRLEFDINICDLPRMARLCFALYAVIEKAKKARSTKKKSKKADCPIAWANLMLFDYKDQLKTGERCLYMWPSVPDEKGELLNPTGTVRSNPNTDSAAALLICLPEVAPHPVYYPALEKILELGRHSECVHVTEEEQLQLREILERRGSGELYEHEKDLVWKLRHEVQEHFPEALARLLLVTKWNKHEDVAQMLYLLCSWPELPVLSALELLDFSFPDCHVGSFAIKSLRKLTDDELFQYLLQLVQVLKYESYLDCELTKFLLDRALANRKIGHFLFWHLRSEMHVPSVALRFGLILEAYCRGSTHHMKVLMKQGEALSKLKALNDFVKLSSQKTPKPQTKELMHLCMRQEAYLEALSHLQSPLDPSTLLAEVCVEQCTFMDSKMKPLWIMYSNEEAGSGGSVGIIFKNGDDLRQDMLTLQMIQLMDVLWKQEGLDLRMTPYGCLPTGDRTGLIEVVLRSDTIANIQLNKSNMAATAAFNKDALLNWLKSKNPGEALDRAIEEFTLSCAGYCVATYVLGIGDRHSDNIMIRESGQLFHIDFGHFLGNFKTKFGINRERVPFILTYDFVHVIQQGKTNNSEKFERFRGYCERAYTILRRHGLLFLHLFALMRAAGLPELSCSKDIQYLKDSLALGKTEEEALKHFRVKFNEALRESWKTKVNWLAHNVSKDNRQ
PI3K delta, sequence (P27986 461-568 partner): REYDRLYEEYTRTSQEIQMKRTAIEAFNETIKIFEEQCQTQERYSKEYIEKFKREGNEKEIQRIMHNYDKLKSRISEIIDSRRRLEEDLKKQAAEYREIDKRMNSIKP

IC50 [1] [nM] | IC50 [2] [nM] | SMILES
14 | 24 | Cc1nc(N)nc(N2C[C@@H](F)C[C@H]2c2nc3cccc(-c4cnn(C)c4)c3c(=O)n2-c2ccccc2)c1C#N [Example 30, 2-Amino-4-((2S,4S)-4-fluoro-2-(5-(1-methyl-1H-pyrazol-4-yl)-4-oxo-3-phenyl-3,4-dihydroquinazolin-2-yl)pyrrolidin-1-yl)-6-methylpyrimidine-5-carbonitrile]
13 | 110 | Cc1nc(N)nc(N2C[C@@H](O)C[C@H]2c2nc3ccc(F)c(-c4cn(C)cn4)c3c(=O)n2-c2ccccc2)c1C#N [Example 31, 2-Amino-4-((2S,4S)-2-(6-fluoro-5-(1-methyl-1H-imidazol-4-yl)-4-oxo-3-phenyl-3,4-dihydroquinazolin-2-yl)-4-hydroxypyrrolidin-1-yl)-6-methylpyrimidine-5-carbonitrile]
5 | 140 | CCOc1ncc(-c2cccc3nc([C@@H]4CCCN4c4nc(N)nc(C)c4C#N)n(-c4ccccc4)c(=O)c23)cn1 [Example 32, (S)-2-Amino-4-(2-(5-(2-ethoxypyrimidin-5-yl)-4-oxo-3-phenyl-3,4-dihydroquinazolin-2-yl)pyrrolidin-1-yl)-6-methylpyrimidine-5-carbonitrile]
13 | 81 | N#Cc1c(N)ncnc1N1CCC[C@H]1c1nc2cccc(C#CCO)c2c(=O)n1-c1ccccc1 [Example 33, (S)-4-Amino-6-(2-(5-(3-hydroxyprop-1-yn-1-yl)-4-oxo-3-phenyl-3,4-dihydroquinazolin-2-yl)pyrrolidin-1-yl)pyrimidine-5-carbonitrile]
